Experimental data: the NIST ThermoML archive (doi:10.1016/j.fluid.2018.07.015)
Numbers after ± are expanded uncertainties.

Experiment: xn = mol fraction of the nth substance listed
Conditions: 101 kPa, Liquid, Vibrating tube method

C=O [methanal] + O
mass density [kg/m3]
Conditions	x1 = 0.0545	x1 = 0.05456	x1 = 0.09849	x1 = 0.1544	x1 = 0.2019	x1 = 0.2573
291.15 K	–	1025.9 ± 1	1045.9 ± 1	1070.2 ± 1.1	1091.8 ± 1.1	1112.8 ± 1.2
298.15 K	1024.6 ± 1	–	1044.7 ± 1	1069.9 ± 1.1	1089.4 ± 1.1	1111.3 ± 1.2
313.15 K	1019.6 ± 1	–	1039.7 ± 1	1066.9 ± 1.1	1086.8 ± 1.1	1109.9 ± 1.2
